Experimental data published in patent US6887903B1, “N-(2-aryl-propionyl)-sulfonamides and pharmaceutical preparations containing them” (Dompe S.p.A., priority 1998, dated 2005).

Experiments:
CO enzymes = conditions: ketoprofen enantiomers; cited from earlier work
[1] = test system: human PMNs leukocytes stimulated by IL-8; assay: Cytosol [Ca2+]i variations in human PMN stimulated by IL-8 (Fura-2AM); type: cell-based; conditions: for [Ca2+]i response, % compared with basal values (basal normalized at 100): compound 10^−6 M + IL-8 50 ng/mL, mean of responsive cells with SEM, PMN from 3 donors; for percentage of non-responsive cells: pretreated with compound 10^−6 M, IL-8 50 ng/mL (30% with only IL-8)
Description: (§1) The compounds of the invention were studied using PMN cells obtained by sedimentation of heparinized blood from healthy volunteers on dextran; the mononuclear cells were removed by means of Ficoll/Hypaque whereas erythrocytes were removed by treatment with hypotonic solutions. Cell viability of PMN leukocytes was calculated by exclusion with Turk and Trypan Blue, while the percentage of PM-nucleates on the cytocentrifugate was evaluated upon staining with Diff Quinck (W. J. Ming et al., J. Immunol., 138, 1469, 1987).
(§2) In each of the “in vitro” tests subsequently described, PMN were incubated with the compounds of the invention for 10 minutes at a temperature of 37° C.
(§3) In the chemotaxis tests and in those for evaluating cytosol levels of the Ca^2+ ion, human recombinant IL-8 (Pepro Tech.) was used as stimulating agent: the freeze-dried protein was dissolved in HBSS (Hank's balanced salts solution) at a concentration of 100 ng/mL and was used after dilution in HBSS to concentrations of 10 ng/mL in the chemotaxis tests and of 25-50 ng/mL in the evaluation of [Ca^2+]i cell modifications.
Cytosol variations of [Ca^2+]i were determined according to the experimental model described by C. Bizzarri et al., (Blood, 86, 2388, 1995), using slides containing adhered PMN added with 1 μM Fura-2AM to evaluate [Ca^2+]i variations in actual time. In their turn, PMN cytocentrifugates were resuspended in RPMI 1640 medium with 5% FCS (bovine foetal serum) at a concentration of 3×10^6/mL and then inoculated (plated) on round glass slides of 25 mm diameter which were placed in incubator for 30 min. at 37° C. After three subsequent washings with BSS (Balanced salts solution) to remove the non adherent cells, all of the adherent cells were further incubated for a maximum of 4 hours before adding Fura-2AM.
By way of example, results obtained with R(−)-N-2-[3-(benzoylphenyl)-propionyl])-methanesulfonamide (DF 1661) and R(−)-N-2-[(4-Isobutylphenyl)-propionyl]-methanesulfonamide (DF 1681) using human PMNs leukocytes from 3 different donors are reported in the subsequent table. These leukocytes were considered responsive to IL-8 (50 ng/mL) when [Ca^2+]i was higher than the basal value by 34% (normalized at 100) in response to the stimulus.
The responses, expressed as % compared with [Ca^2+]i basal values, are the mean of the values of the responsive cells and include standard error (SEM); n is the number of replications. During these tests, the percentage of non-responsive cells was different in the different groups: 30% in the group treated with only IL-8, 40% in the group pretreated with DF 1661 and 70% in the group pretreated with DF 1681.

[2] = test system: PMN human leukocytes stimulated by C5a; assay: Chemotaxis of human PMN induced by C5a; type: cell-based; conditions: C5a 10^−9 M; DF 1681 from 10^−6 to 10^−7 M
Description: as §1, §2
(§4) In the chemotaxis test (according to W. Falket et al., J. Immunol. Methods, 33, 239, 1980) PVP filters of […] porosity and a plexigas microcamera suitable to perform 48 replications were used. The microcamera consists of a plexiglas piece containing 48 wells, each of 25 μL capacity, and is equipped with a cover, in its turn containing 48 pores arranged so that, once the lid has been placed on and screwed to the underneath part, 50 μL capacity top compartments are formed in the microcamera.
(§5) Equal concentrations of the tested compounds were placed in the top wells containing the PMN suspension and in the lower ones, which contained the carrier optionally added with IL-8 (or a different stimulating agent).

[3] = test system: PMN human leukocytes stimulated by f-MLP; assay: Chemotaxis of human PMN induced by f-MLP; type: cell-based; conditions: f-MLP 10^−8 M; DF 1681 from 10^−6 to 10^−7 M
Description: as §1, §2, §4, §5

[4] = test system: PMN human leukocytes stimulated by interleukin 8; assay: Chemotaxis of human PMN induced by IL-8; type: cell-based; conditions: IL-8 10 ng/mL; concentration range from 10^−6 to 10^−11 M; mean ±S.D. of 3 independent tests
Description: as §1, §2, §3
In the chemotaxis test (according to W. Falket et al., J. Immunol. Methods, 33, 239, 1980) PVP filters of […] porosity and a plexigas microcamera suitable to perform 48 replications were used. […]

[5] = test system: human neutrophils stimulated by complement C5a; conditions: concentration range of 50 to 330 nM; cited from earlier work
[6] = test system: human neutrophils stimulated by IL-8; conditions: IL-8 1 nM; read-out: IC50 of blockage of chemotaxis stimulated by IL-8; cited from earlier work
[7] = test system: human neutrophils stimulated by GROα; conditions: GROα 10 nM; read-out: IC50 of blockage of chemotaxis stimulated by GROα; cited from earlier work

## C[C@@H](C(=O)O)c1cccc(C(=O)c2ccccc2)c1 (single isomer, unassigned) [enantiomer (R)]
CO enzymes
  lower potency of enantiomer (R) compared with enantiomer (S) as CO enzymes inhibitor: 10-100 times

## C[C@@H](C(=O)NS(C)(=O)=O)c1cccc(C(=O)c2ccccc2)c1 [DF 1661]
[1]
  [Ca2+]i response, % compared with basal values (basal normalized at 100): 184 + 16 (n = 10) %
  percentage of non-responsive cells: 40%

## CC(C)Cc1ccc([C@@H](C)C(=O)NS(C)(=O)=O)cc1 [DF 1681, R(−)-N-[2-(4-Isobutylphenyl)propionyl]-methanesulfonamide]
[2]
  inhibition of chemotaxis induced by C5a (FIG. 2): selectivity inhibit IL-8-induced chemotaxis instead of chemotaxis induced by C5a
[1]
  [Ca2+]i response, % compared with basal values (basal normalized at 100): 159 + 16 (n = 10) %
  percentage of non-responsive cells: 70%
[3]
  inhibition of chemotaxis induced by f-MLP (FIG. 2): selectivity inhibit IL-8-induced chemotaxis instead of chemotaxis induced by C5a (10^−9 M) or by f-MLP
[4]
  inhibition of chemotaxis induced by IL-8 (number of migrated PMN, FIG. 1): dose-dependently inhibits chemotaxis induced by IL-8

## O=C(Nc1ccc([N+](=O)[O-])cc1O)Nc1ccccc1Br [N-(2-hydroxy-4-nitrophenyl)-N′-(2-bromo-phenyl)urea]
[5]
  blockage of C5a-stimulated chemotaxis: but not that of complement C5a-stimulated chemotaxis
[6]
  IC50: 20 to 60 nM
[7]
  IC50: 20 to 60 nM
